Experimental data from patent US20250026722A1, “SUBSTITUTED QUINOLINES AS IMPROVED NF-KB-INDUCING KINASE (NIK) INHIBITORS” (YUKIN THERAPEUTICS, priority 2021, published 2025).

Experiments:
A375 cells [1] = experiment: Senescence assay in A375 cells (SPiDER βGAL labelling, confocal imaging after seven days with compound); type: cell-based; settings: Homo sapiens, A-375, 168 h, seven days in the presence of compounds
Method: (§1) A375 (American Type Culture Collection; CRL-1619) cells were seeded into 96 well plates (1,200 cells/well; Perkin Elmer; 6005225) and incubated overnight at 37° C., 5% CO2. Compounds prepared in media (Dulbecco's modified Eagle medium+10% foetal bovine serum+1% penicillin/streptomycin) were added to the cells and incubated for four days at 37° C., 5% CO2. Media was then aspirated from the cells and freshly prepared compounds were added to the cells, which were then incubated for a further three days at 37° C., 5% CO2. After a total of seven days in the presence of compounds, media was removed, and the cells were labelled with Hoechst (1 in 1,000; Thermo Fisher; 62249), TOTO™-3 (1 in 10,000; Thermo Fisher; T3604) and SPiDER βGAL (1.0 μM; Sigma-Aldrich; 94433) prepared in Hanks' Balanced Salt Solution supplemented with 1.0 mM HEPES buffer for 20 minutes at 37° C. Cells were imaged by confocal microscopy using an ImageXpress (Molecular Devices) at ×10 magnification. Images were analysed using MetaXpress software (Molecular Devices).

A375 cells [2] = experiment: Proliferation assay in A375 cells (confocal imaging after seven days with compound); type: cell-based; settings: Homo sapiens, A-375, 168 h, seven days in the presence of compounds
Method: as §1

NIK [3] = target: T1, NIK (Homo sapiens, UniProt Q99558); experiment: NIK degradation Western-blot experiments in A375 cells; type: cell-based; settings: 10 μM for 72 hrs, 5 μM MG132 during last 4 hours
T1 construct: endogenous in cells; host or cells: A375 cells
Method: A375 cells were plated in 6-well dishes at 2,000 cells/cm^2. The day after, cells were treated for 72 hrs with compounds of the examples at 10 μM. Cells were treated during the last 4 hours of the treatment period with 5 μM MG132 to inhibit proteasomal degradation. For protein isolation, cells were washed twice with PBS and then lysed using RIPA Buffer (1×) containing protease and phosphatase inhibitors. Following sonication, the lysate was centrifuged at 20,000 g for 10 min at 4° C. and the supernatants were collected and assayed for protein concentration using the BCA kit (Pierce).
Total protein (20 μg) was separated by electrophoresis on 10% SDS-polyacrylamide gels and transferred to PVDF membranes (Millipore). Blocking was performed in Tris-buffer saline containing 3% BSA. Membranes were incubated with the appropriate primary antibodies overnight at 4° C. (NIK, CST #4994, 1/2000) and β-actin (Santa-Cruz, sc-47778, 1/5000). After washing three times, membranes were incubated with horseradish peroxidase-conjugated secondary antibodies for 1 h. Bound antibodies were detected using an enhanced chemiluminescence plus kit (GE Healthcare). NIK degradation was tested and confirmed for the compounds of Examples 3, 4, 5, 6, 10 and 11 (see the corresponding table below). For illustration, the Western blot analysis of NIK degradation in cells treated with the compound of Example 3 (at 10 μM for 72 h) is shown in FIG. 1.

NIK [4] = target: T1, NIK; settings: pan kinase inhibitor, literature; cited from earlier work

T1 sequence (Q99558 whole entry): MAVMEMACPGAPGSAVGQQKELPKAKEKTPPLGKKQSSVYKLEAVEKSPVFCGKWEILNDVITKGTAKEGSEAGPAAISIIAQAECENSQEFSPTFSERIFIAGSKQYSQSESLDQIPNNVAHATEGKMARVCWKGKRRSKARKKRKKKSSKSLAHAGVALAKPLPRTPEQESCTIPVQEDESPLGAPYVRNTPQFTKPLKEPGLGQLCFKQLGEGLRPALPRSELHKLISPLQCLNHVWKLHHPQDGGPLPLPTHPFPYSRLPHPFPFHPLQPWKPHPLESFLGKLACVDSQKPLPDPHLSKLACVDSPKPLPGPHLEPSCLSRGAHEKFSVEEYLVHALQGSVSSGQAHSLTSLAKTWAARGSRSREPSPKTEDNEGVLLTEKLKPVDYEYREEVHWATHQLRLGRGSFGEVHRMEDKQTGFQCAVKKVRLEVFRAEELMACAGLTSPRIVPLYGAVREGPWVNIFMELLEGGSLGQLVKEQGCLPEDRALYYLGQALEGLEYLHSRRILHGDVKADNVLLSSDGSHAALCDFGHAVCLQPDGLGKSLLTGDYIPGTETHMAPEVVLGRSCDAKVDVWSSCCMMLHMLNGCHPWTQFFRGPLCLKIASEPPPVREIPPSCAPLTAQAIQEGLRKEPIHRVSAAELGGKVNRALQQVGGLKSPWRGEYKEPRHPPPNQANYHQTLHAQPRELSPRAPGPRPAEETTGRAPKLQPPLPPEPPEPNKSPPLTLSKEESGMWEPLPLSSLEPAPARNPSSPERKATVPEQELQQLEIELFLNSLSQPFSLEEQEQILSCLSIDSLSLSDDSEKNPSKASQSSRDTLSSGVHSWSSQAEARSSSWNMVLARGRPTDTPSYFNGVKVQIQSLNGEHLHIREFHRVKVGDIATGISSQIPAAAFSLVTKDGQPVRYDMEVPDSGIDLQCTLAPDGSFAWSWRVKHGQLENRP

| EC50 (A375 cells [1]) | IC50 (A375 cells [2]) | NIK degradation activity (NIK [3]) | Structure (SMILES) | inhibition of the kinase activity (NIK) (NIK [4]) |
| --- | --- | --- | --- | --- |
| – | – | confirmed | COCCOc1ccc(Nc2ccnc3cc(N4CCN(C)CC4)ccc23)c(OC)c1 [Example 6, N-(2-methoxy-4-(2-methoxyethoxy)phenyl)-7-(4-methylpiperazin-1-yl)quinolin-4-amine] | – |
| 0.2 µM | 0.205 µM | – | COCCOc1ccc(Nc2ccnc3cc(C(F)F)ccc23)c(OC)c1 [Example 9, 7-(difluoromethyl)-N-(2-methoxy-4-(2-methoxyethoxy)phenyl)quinolin-4-amine] | – |
| 0.67 µM | 0.195 µM | confirmed | COCCOc1ccc(Nc2ccnc3cc(C)ccc23)c(OC)c1 [Example 10, N-(2-methoxy-4-(2-methoxyethoxy)phenyl)-7-methylquinolin-4-amine] | – |
| – | – | confirmed | COCCOc1ccc(Nc2ccnc3cc(C4CCN(C)CC4)ccc23)c(OC)c1 [Example 11, N-(2-methoxy-4-(2-methoxyethoxy)phenyl)-7-(1-methylpiperidin-4-yl)quinolin-4-amine] | – |
| 2.49 µM | 1.69 µM | – | COCCOc1ccc(Nc2ccnc3cc(Cl)ccc23)cc1 [Reference compound (*), 7-chloro-N-(4-(2-methoxyethoxy)phenyl)quinolin-4-amine] | – |
| > 10 µM | > 10 µM | – | COc1ccc(Nc2ccnc3cc(Cl)ccc23)cc1O [Reference compound (**), 7-chloro-N-(3-(hydroxy)-4-(methoxy)phenyl)quinolin-4-amine] | – |

Second part, the compound before the results:

| Structure (SMILES) | EC50 (A375 cells [1]) | IC50 (A375 cells [2]) | NIK degradation activity (NIK [3]) | inhibition of the kinase activity (NIK) (NIK [4]) |
| --- | --- | --- | --- | --- |
| COCCOc1ccc(Nc2ccnc3cc(C(F)F)ccc23)cc1 | 2.31 µM | 1.74 µM | – | – |
| COCCOc1ccc(Nc2ccnc3cc(C)ccc23)cc1 | 2.46 µM | 1.9 µM | – | – |
| COCCOc1ccc(Nc2ccnc3cc(OC)ccc23)c(OC)c1 [Example 3, 7-methoxy-N-(2-methoxy-4-(2-methoxyethoxy)phenyl)quinolin-4-amine] | – | – | confirmed | – |
| COCCOc1ccc(Nc2ccnc3cc(-c4cnn(C)c4)ccc23)c(OC)c1 [Example 4, N-(2-methoxy-4-(2-methoxyethoxy)phenyl)-7-(1-methyl-1H-pyrazol-4-yl)quinolin-4-amine] | – | – | confirmed | – |
| COCCOc1ccc(Nc2ccnc3cc(C4=CCN(C)CC4)ccc23)c(OC)c1 [Example 5, N-(2-methoxy-4-(2-methoxyethoxy)phenyl)-7-(1-methyl-1,2,3,6-tetrahydropyridin-4-yl)quinolin-4-amine] | – | – | confirmed | – |
| CN[C@@H]1C[C@H]2O[C@@](C)([C@@H]1OC)n1c3ccccc3c3c4c(c5c6ccccc6n2c5c31)C(=O)NC4 [staurosporine] | – | – | – | micromolar level |
